Test results reported in patent US10479784B2, “Substituted pyrazin-2-amines as inhibitors of ATR kinase” (Vertex Pharmaceuticals Incorporated, priority 2008, dated 2019).

Target: full-length ATR (Homo sapiens (Human), UniProt Q13535)
Test: ATR Inhibition Assay (radioactive-phosphate incorporation)
Type: biochemical
Conditions: read-out: ATR Ki
Method: Compounds were screened for their ability to inhibit ATR kinase using a radioactive-phosphate incorporation assay. Assays were carried out in a mixture of 50 mM Tris/HCl (pH 7.5), 10 mM MgCl2 and 1 mM DTT. Final substrate concentrations were […] [γ-33P]ATP (3mCi 33P ATP/mmol ATP, Perkin Elmer) and 800 μM target peptide ([…]).
Assays were carried out at 25° C. in the presence of 5 nM full-length ATR. An assay stock buffer solution was prepared containing all of the reagents listed above, with the exception of ATP and the test compound of interest. […] The plate was pre-incubated for 10 minutes at 25° C. and the reaction initiated by addition of 15 μL [γ-33P]ATP (final concentration 10 μM).
The reaction was stopped after […] by the addition of 30 μL 0.1M phosphoric acid containing 2 mM ATP. A multiscreen phosphocellulose filter 96-well plate (Millipore, Cat no. MAPHN0B50) was pretreated with 100 μL 0.2M phosphoric acid prior to the addition of 45 μL of the stopped assay mixture. […] After drying, 100 μL Optiphase ‘SuperMix’ liquid scintillation cocktail (Perkin Elmer) was added to the well prior to scintillation counting (1450 Microbeta Liquid Scintillation Counter, Wallac).
After removing mean background values for all of the data points, Ki(app) data were calculated from non-linear regression analysis of the initial rate data using the Prism software package (GraphPad Prism version 3.0cx for Macintosh, GraphPad Software, San Diego Calif., USA).

Sequence of full-length ATR (Q13535 whole entry): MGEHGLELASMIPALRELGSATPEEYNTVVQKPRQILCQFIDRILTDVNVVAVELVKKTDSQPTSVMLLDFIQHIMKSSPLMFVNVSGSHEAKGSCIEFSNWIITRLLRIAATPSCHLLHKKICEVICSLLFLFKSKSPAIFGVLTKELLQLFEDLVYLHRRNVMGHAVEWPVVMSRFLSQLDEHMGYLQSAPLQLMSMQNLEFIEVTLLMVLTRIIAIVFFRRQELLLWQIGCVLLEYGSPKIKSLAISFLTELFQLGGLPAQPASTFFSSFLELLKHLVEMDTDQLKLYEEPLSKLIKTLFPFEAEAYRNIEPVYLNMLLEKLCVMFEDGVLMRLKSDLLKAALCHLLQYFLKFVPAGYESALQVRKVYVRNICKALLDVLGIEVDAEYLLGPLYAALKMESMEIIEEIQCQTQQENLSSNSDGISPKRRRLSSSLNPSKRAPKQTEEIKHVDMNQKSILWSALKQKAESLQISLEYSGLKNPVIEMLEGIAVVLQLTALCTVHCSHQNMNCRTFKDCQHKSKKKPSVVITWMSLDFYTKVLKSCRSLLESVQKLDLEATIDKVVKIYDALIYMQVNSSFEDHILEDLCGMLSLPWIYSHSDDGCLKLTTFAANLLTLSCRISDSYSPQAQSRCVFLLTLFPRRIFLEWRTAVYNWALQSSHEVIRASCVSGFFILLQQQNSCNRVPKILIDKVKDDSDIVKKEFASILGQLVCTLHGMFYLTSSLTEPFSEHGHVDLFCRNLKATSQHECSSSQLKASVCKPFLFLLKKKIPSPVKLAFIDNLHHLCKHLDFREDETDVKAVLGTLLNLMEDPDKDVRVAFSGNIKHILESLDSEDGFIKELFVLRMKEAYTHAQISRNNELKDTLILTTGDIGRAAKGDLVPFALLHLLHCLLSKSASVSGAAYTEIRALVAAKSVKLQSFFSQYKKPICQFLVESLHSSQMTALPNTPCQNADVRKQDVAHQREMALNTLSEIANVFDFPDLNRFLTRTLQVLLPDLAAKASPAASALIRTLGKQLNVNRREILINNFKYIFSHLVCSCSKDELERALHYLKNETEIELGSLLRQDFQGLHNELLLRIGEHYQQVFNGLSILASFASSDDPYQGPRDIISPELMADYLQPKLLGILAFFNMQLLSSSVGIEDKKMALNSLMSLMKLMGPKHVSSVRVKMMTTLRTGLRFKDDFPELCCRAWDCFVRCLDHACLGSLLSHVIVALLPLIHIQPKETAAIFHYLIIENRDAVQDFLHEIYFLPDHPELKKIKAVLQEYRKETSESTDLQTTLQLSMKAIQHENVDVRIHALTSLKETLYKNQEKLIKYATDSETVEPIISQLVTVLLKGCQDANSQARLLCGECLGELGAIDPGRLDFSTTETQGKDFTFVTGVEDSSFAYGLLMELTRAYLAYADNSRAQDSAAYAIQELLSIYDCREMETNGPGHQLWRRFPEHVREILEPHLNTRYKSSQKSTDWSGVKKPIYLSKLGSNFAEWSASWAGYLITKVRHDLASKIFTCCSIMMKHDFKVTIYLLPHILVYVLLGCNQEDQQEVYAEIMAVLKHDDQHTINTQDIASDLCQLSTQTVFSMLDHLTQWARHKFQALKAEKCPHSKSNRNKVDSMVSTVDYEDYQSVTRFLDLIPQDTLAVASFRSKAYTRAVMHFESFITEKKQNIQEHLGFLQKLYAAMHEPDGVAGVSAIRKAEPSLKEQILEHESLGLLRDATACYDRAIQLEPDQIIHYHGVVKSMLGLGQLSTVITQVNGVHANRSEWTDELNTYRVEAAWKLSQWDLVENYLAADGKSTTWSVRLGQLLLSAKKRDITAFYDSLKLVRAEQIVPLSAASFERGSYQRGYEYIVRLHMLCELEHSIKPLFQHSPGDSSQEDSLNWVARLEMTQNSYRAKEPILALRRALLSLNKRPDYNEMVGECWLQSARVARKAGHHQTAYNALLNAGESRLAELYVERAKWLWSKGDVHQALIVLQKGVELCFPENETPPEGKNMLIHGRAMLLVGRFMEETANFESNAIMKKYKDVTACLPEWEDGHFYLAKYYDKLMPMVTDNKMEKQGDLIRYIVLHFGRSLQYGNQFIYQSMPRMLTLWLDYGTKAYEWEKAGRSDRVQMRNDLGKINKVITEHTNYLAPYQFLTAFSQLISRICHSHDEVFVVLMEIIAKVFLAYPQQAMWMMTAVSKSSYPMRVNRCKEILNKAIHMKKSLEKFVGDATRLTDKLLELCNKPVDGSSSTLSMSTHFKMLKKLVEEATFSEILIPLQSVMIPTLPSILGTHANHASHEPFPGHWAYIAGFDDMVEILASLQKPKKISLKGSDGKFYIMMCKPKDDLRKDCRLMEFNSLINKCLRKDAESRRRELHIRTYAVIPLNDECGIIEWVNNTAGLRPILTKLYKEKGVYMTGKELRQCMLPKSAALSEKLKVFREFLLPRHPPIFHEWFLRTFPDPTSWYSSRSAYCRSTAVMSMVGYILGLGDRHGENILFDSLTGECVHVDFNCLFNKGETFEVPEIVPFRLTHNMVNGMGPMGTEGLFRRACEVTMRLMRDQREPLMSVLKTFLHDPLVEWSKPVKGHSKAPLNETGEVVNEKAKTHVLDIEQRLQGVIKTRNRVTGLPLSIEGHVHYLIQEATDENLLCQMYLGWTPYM

CC(C)S(=O)(=O)c1ccc(-c2cnc(N)c(-c3nnc(-c4cccc(C5CNC5)c4)o3)n2)cc1 [IA-185, 3-[5-[3-(azetidin-3-yl)phenyl]-1,3,4-oxadiazol-2-yl]-5-(4-isopropylsulfonylphenyl)pyrazin-2-amine] and CNC(C)c1ccc(-c2nnc(-c3nc(-c4ccc(S(=O)(=O)C(C)C)cc4)cnc3N)o2)cc1 (stereo not shown) [IA-212, 5-(4-isopropylsulfonylphenyl)-3-[5-[4-[1-(methylamino)ethyl]phenyl]-1,3,4-oxadiazol-2-yl]pyrazin-2-amine] cannot be ordered by Ki: 10 to 100 nM for the first, no more than 10 nM for the second.

First: Nc1ncc(-c2cccc3ccccc23)nc1-c1nnc(-c2ccccc2)o1 [IA-93, 5-(1-naphthyl)-3-(5-phenyl-1,3,4-oxadiazol-2-yl)pyrazin-2-amine]
Second: Nc1ncc(-c2cccc3ccsc23)nc1-c1nnc(-c2ccccc2)o1 [IA-259, 5-(benzothiophen-7-yl)-3-(5-phenyl-1,3,4-oxadiazol-2-yl)pyrazin-2-amine]
The Ki of the first is higher: 100 to 5000 nM for the first, 10 to 100 nM for the second. The second binds more tightly here.

CS(=O)(=O)c1ccc(-c2cnc(N)c(C(=O)Nc3n[nH]c4ccccc34)n2)cc1 [Compound V-13] and CS(=O)(=O)c1cccc(-c2cnc(N)c(C(=O)Nc3ccccc3)n2)c1 [Compound I-3] fall in the same range of Ki: 100 to 5000 nM for the first, 100 to 5000 nM for the second.

NC(=O)c1cccc(-c2cnc(N)c(-c3nnc(-c4ccccc4)o3)n2)c1 [IA-100, 3-[5-amino-6-(5-phenyl-1,3,4-oxadiazol-2-yl)pyrazin-2-yl]benzamide] and Nc1ncc(-c2ccoc2)nc1-c1nnc(-c2ccccc2)o1 [IA-170, 5-(3-furyl)-3-(5-phenyl-1,3,4-oxadiazol-2-yl)pyrazin-2-amine] fall in the same range of Ki: 10 to 100 nM for the first, 10 to 100 nM for the second.

CN(C)c1cccc(NC(=O)c2nc(-c3cccnc3)cnc2N)c1 [Compound I-90, 3-amino-N-(3-(dimethylamino)phenyl)-6-(pyridin-3-yl)pyrazine-2-carboxamide] and NC(=O)c1ccc(NC(=O)c2nc(-c3cccnc3)cnc2N)cc1 [Compound I-92, 3-amino-N-(4-carbamoylphenyl)-6-(pyridin-3-yl)pyrazine-2-carboxamide] fall in the same range of Ki: 100 to 5000 nM for the first, 100 to 5000 nM for the second.

Compared with Nc1ncc(-c2cccc(C(=O)N3CCC(N4CCCC4)CC3)c2)nc1C(=O)Nc1ccccc1 [Compound I-56, 3-amino-N-phenyl-6-(3-(4-(pyrrolidin-1-yl)piperidine-1-carbonyl)phenyl)pyrazine-2-carboxamide], Nc1ncc(-c2ccc(C(=O)N3CCNCC3)cc2)nc1C(=O)Nc1ccccc1 [Compound I-74, 3-amino-N-phenyl-6-(4-(piperazine-1-carbonyl)phenyl)pyrazine-2-carboxamide] is lower in Ki: 100 to 5000 nM for the first, 10 to 100 nM for the second. The second binds more tightly here.

CCCCOC(=O)c1nnc(-c2nc(-c3ccc(S(=O)(=O)C(C)C)cc3)cnc2N)o1 [IA-113, butyl 5-[3-amino-6-(4-isopropylsulfonylphenyl)pyrazin-2-yl]-1,3,4-oxadiazole-2-carboxylate] and CC(C)S(=O)(=O)c1ccc(-c2cnc(N)c(-c3nnc(CC(=O)O)o3)n2)cc1 [IA-78, 2-[5-[3-amino-6-(4-isopropylsulfonylphenyl)pyrazin-2-yl]-1,3,4-oxadiazol-2-yl]acetic acid] fall in the same range of Ki: 10 to 100 nM for the first, 10 to 100 nM for the second.

First: Nc1ncc(-c2ccccc2CO)nc1C(=O)Nc1ccccc1 [Compound I-19, 3-amino-6-(2-(hydroxymethyl)phenyl)-N-phenylpyrazine-2-carboxamide]
Second: Cc1ccccc1-c1cnc(N)c(C(=O)Nc2ccccc2)n1 [Compound I-11, 3-amino-N-phenyl-6-o-tolylpyrazine-2-carboxamide]
The Ki of the first is lower: 10 to 100 nM for the first, 100 to 5000 nM for the second. The first binds more tightly here.

CCCS(=O)(=O)c1ccc(-c2cnc(N)c(-c3nnc(-c4ccc(CNC)cc4)o3)n2)cc1 [IA-310, 3-[5-[4-(methylaminomethyl)phenyl]-1,3,4-oxadiazol-2-yl]-5-(4-propylsulfonylphenyl)pyrazin-2-amine] and CNCc1ccc(-c2nnc(-c3nc(-c4ccc(S(=O)(=O)C(C)C)c(C#N)c4)cnc3N)o2)cc1 [IA-295, 5-[5-amino-6-[5-[4-(methylaminomethyl)phenyl]-1,3,4-oxadiazol-2-yl]pyrazin-2-yl]-2-isopropylsulfonyl-benzonitrile] cannot be ordered by Ki: no more than 10 nM for the first, no more than 10 nM for the second.

CN(C)C(=O)c1ccc(-c2cnc(N)c(-c3nnc(-c4ccccc4OCCN)o3)n2)cc1 [IA-213, 4-[5-amino-6-[5-[2-(2-aminoethoxy)phenyl]-1,3,4-oxadiazol-2-yl]pyrazin-2-yl]-N,N-dimethyl-benzamide] and CN(C)C(=O)c1ccc(-c2cnc(N)c(-c3nnc(-c4cccc(F)c4)o3)n2)cc1 [IA-40, 4-(5-amino-6-(5-(3-fluorophenyl)-1,3,4-oxadiazol-2-yl)pyrazin-2-yl)-N,N-dimethylbenzamide] fall in the same range of Ki: 10 to 100 nM for the first, 10 to 100 nM for the second.

CS(=O)(=O)c1ccc(-c2cnc(N)c(-c3nc4ccc(C#N)cc4[nH]3)n2)cc1 [Compound I-111, 2-(3-amino-6-(4-(methylsulfonyl)phenyl)pyrazin-2-yl)-1H-benzo[d]imidazole-6-carbonitrile] and CC(C)S(=O)(=O)c1ccc(-c2cnc(N)c(-c3nnc(-c4ccc(CNC[C@H](C)O)cc4F)o3)n2)cc1 [IA-334, (S)-1-(4-(5-(3-amino-6-(4-(isopropylsulfonyl)phenyl)pyrazin-2-yl)-1,3,4-oxadiazol-2-yl)-3-fluorobenzylamino)propan-2-ol] cannot be ordered by Ki: 10 to 100 nM for the first, no more than 10 nM for the second.

First: C[S+]([O-])c1ccccc1-c1cnc(N)c(-c2nnc(-c3ccccc3)o2)n1 (stereo not shown) [IA-241, 5-(2-methylsulfinylphenyl)-3-(5-phenyl-1,3,4-oxadiazol-2-yl)pyrazin-2-amine]
Second: COc1ccc(-c2cnc(N)c(-c3nnc(-c4ccccc4)o3)n2)cn1 [IA-117, 5-(6-methoxy-3-pyridyl)-3-(5-phenyl-1,3,4-oxadiazol-2-yl)pyrazin-2-amine]
The Ki of the first is lower: no more than 10 nM for the first, 100 to 5000 nM for the second.

First: Nc1ncc(-c2ccc(C(=O)N3CCCNCC3)cc2)nc1C(=O)Nc1cc2ccccc2[nH]1 [Compound V-6]
Second: CN(C)CCN(C)C(=O)c1ccc(-c2cnc(N)c(C(=O)Nc3ccccc3)n2)cc1 [Compound I-68, 3-amino-6-(4-((2-(dimethylamino)ethyl)(methyl)carbamoyl)phenyl)-N-phenylpyrazine-2-carboxamide]
The Ki of the first is higher: 100 to 5000 nM for the first, 10 to 100 nM for the second.

CN(C)CCNc1nccc(-c2cnc(N)c(-c3nnc(-c4ccccc4)o3)n2)c1C#N [IA-209, 4-[5-amino-6-(5-phenyl-1,3,4-oxadiazol-2-yl)pyrazin-2-yl]-2-(2-dimethylaminoethylamino)pyridine-3-carbonitrile] and CN(C)C(=O)c1ccc(-c2cnc(N)c(-c3nnc(-c4ccccc4)s3)n2)c(C#N)c1 [IVA-1, 4-[5-amino-6-(5-phenyl-1,3,4-thiadiazol-2-yl)pyrazin-2-yl]-3-cyano-N,N-dimethyl-benzamide] cannot be ordered by Ki: 10 to 100 nM for the first, no more than 10 nM for the second.

COc1ccccc1NC(=O)c1nc(-c2ccc3[nH]ncc3c2)cnc1N [Compound I-36, 3-amino-6-(1H-indazol-5-yl)-N-(2-methoxyphenyl)pyrazine-2-carboxamide] and CN(C)C(=O)c1ccc(-c2cnc(N)c(-c3nnc(-c4ccnc(N)c4)o3)n2)cc1 [IA-223, 4-[5-amino-6-[5-(2-amino-4-pyridyl)-1,3,4-oxadiazol-2-yl]pyrazin-2-yl]-N,N-dimethyl-benzamide] fall in the same range of Ki: 10 to 100 nM for the first, 10 to 100 nM for the second.

For Cc1csc(-c2nnc(-c3nc(-c4ccc(C(=O)N(C)C)cc4)cnc3N)o2)c1 [IA-246, 4-[5-amino-6-[5-(4-methyl-2-thienyl)-1,3,4-oxadiazol-2-yl]pyrazin-2-yl]-N,N-dimethyl-benzamide], the Ki was no more than 10 nM.
